In US20240041042A1, “1-(PYRIDYL)-5-AZINYLPYRAZOLE DERIVATIVES, AND THEIR USE FOR CONTROL OF UNDESIRED PLANT GROWTH” (Bayer Aktiengesellschaft, priority 2020, published 2024):
Like-named read-outs stand apart in the source and are kept apart here.

How the values were obtained:
Assay type in all cases: in vivo
[1] = tested on: Echinochloa crus-galli (ECHCG); assay: Post-emergence herbicidal action against ECHCG
In short: (§1)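 Post-emergence greenhouse spray, one-leaf stage, 600 l/ha water plus 0.5% additive; WP or EC formulations; application rates 320 g/ha or lower. Visual % damage vs untreated controls at ~3 weeks.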

[2] = tested on: Alopecurus myosuroides (ALOMY); assay: Pre-emergence herbicidal action against ALOMY; settings: scored visually after about 3 weeks, 100% = plants have died
In short: (§2)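 Read-out is visual percent damage relative to untreated pots, with 100% meaning dead plants and 0% meaning no difference, assessed roughly three weeks after treatment. Compounds were applied pre-emergence to the covering soil at up to 320 g/ha.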

[3] = tested on: Pharbitis purpurea (PHBPU); assay: Post-emergence herbicidal action against PHBPU
In short: as §1

[4] = tested on: Matricaria inodora (MATIN); assay: Pre-emergence herbicidal action against MATIN; settings: dosage 320 g/ha
In short: as §2

[5] = tested on: Amaranthus retroflexus (AMARE); assay: Pre-emergence herbicidal action against AMARE; settings: visual scoring after about 3 weeks vs untreated controls
In short: as §2

[6] = tested on: Matricaria inodora (MATIN); assay: Post-emergence herbicidal action against MATIN
Method: Seeds of monocotyledonous and dicotyledonous weeds and crop plants are placed in sandy loam in plastic or organic planting pots, covered with soil and cultivated in a greenhouse under controlled growth conditions. 2 to 3 weeks after sowing, the test plants are treated at the one-leaf stage. The compounds of the invention, formulated in the form of wettable powders (WP) or as emulsion concentrates (EC), are then sprayed onto the green parts of the plants as aqueous suspension or emulsion with addition of 0.5% additive at a water application rate of 600 l/ha (converted). After the test plants have been kept in the greenhouse under optimum growth conditions for about 3 weeks, the activity of the preparations is rated visually in comparison to untreated controls. For example, 100% activity=the plants have died, 0% activity=like control plants.
Tables B1 to B13 below show the effects of selected compounds of the general formula (I) according to Table 1 on various harmful plants and at an application rate corresponding to 320 g/ha or lower, which were obtained by the experimental procedure mentioned above. The appendices “a”, “b” and “c” give differentiation by dosage used with otherwise the same harmful plants tested.

[7] = tested on: Polygonum convolvulus (POLCO); assay: Pre-emergence herbicidal action against POLCO
In short: as §2

Oryza sativa (ORYSA) = settings: crop plant compatibility
In short: (§3)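 Greenhouse crops in sandy loam sprayed post-emergence at the one-leaf stage, 2–3 weeks after sowing, with WP or EC formulations in water plus 0.5% additive at 600 l/ha. Damage rated visually about 3 weeks later versus untreated controls (0% = like control, 100% = dead); suffixes a–c denote different doses.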

[8] = tested on: Echinochloa crus-galli (ECHCG); assay: Pre-emergence herbicidal action against ECHCG; settings: dosage 320 g/ha
In short: as §2

[9] = tested on: Amaranthus retroflexus (AMARE); assay: Post-emergence herbicidal action against AMARE
In short: as §1

Viola tricolor (VIOTR) [10] = assay: Pre-emergence herbicidal action against VIOTR; settings: 320 g/ha, Viola tricolor
In short: as §2

[11] = tested on: Verconica persica (VERPE); assay: Pre-emergence herbicidal action against VERPE
In short: as §2

Setaria viridis (SETVI) [12] = assay: Pre-emergence herbicidal action against SETVI
In short: as §2

Avena fatua (AVEFA) [13] = assay: Post-emergence herbicidal action against AVEFA; settings: visual rating about 3 weeks after treatment
In short: as §1

Lolium rigidum (LOLRI) [14] = assay: Post-emergence herbicidal action against LOLRI; settings: dosage 320 g/ha
In short: as §1

Lolium rigidum (LOLRI) [15] = assay: Pre-emergence herbicidal action against LOLRI
In short: as §2

Setaria viridis (SETVI) [16] = assay: Post-emergence herbicidal action against SETVI
In short: as §1

Avena fatua (AVEFA) [17] = assay: Pre-emergence herbicidal action against AVEFA; settings: visual scoring after about 3 weeks vs untreated controls
In short: as §2

[18] = tested on: Alopecurus myosuroides (ALOMY); assay: Post-emergence herbicidal action against ALOMY; settings: visual rating about 3 weeks after treatment vs untreated controls (100% = plants have died, 0% = like control plants)
In short: as §1

[19] = tested on: Verconica persica (VERPE); assay: Post-emergence herbicidal action against VERPE
In short: as §1

Viola tricolor (VIOTR) [20] = assay: Post-emergence herbicidal action against VIOTR; settings: 320 g/ha
In short: as §1

[21] = tested on: Pharbitis purpurea (PHBPU); assay: Pre-emergence herbicidal action against PHBPU; settings: dosage 320 g/ha
In short: as §2

Zea mays (ZEAMX) = settings: 20 g/ha, ZEAMX, effect in comparison to untreated controls
In short: as §3

[22] = 80 g/ha, effect in comparison to untreated controls
[23] = 80 g/ha, visual rating about 3 weeks after treatment vs untreated controls (100% = plants have died, 0% = like control plants)
[24] = 320 g/ha, visual rating about 3 weeks after treatment
[25] = 20 g/ha, effect vs untreated controls

| Compound | Post-emergence action against ECHCG in % ([1]; dosage 80 g/ha) [%] | Pre-emergence action against ALOMY ([2]; 80 g/ha) [%] | Pre-emergence action against ALOMY ([2]; 320 g/ha) [%] | Pre-emergence action against MATIN in % [4] [%] | Pre-emergence action against AMARE in % ([5]; 80 g/ha) [%] | Pre-emergence action against AMARE in % ([5]; 320 g/ha) [%] | Post-emergence action against MATIN in % ([6]; dosage 80 g/ha) [%] | Pre-emergence action against POLCO in % ([7]; dosage 320 g/ha) [%] | Post-emergence action against ORYSA in % (Oryza sativa (ORYSA); [22]) [%] | Pre-emergence action against ECHCG in % [8] [%] | Post-emergence action against AMARE in % [9, 23] [%] | Pre-emergence action against VIOTR in % (Viola tricolor (VIOTR) [10]) [%] | Pre-emergence action against VERPE in % ([11]; dosage 80 g/ha) [%] | Pre-emergence action against VERPE in % ([11]; dosage 320 g/ha) [%] | Pre-emergence action against SETVI in % (Setaria viridis (SETVI) [12]; dosage 320 g/ha) [%] | Pre-emergence action against LOLRI in % (Lolium rigidum (LOLRI) [15]; dosage 320 g/ha) [%] | Pre-emergence action against AVEFA in % (Avena fatua (AVEFA) [17]; 320 g/ha) [%] | Post-emergence action against ALOMY in % ([18]; 80 g/ha) [%] | Post-emergence action against VERPE in % ([19]; dosage 80 g/ha) [%] | Pre-emergence action against PHBPU in % [21] [%] | further results |
| --- | --- | --- | --- | --- | --- | --- | --- | --- | --- | --- | --- | --- | --- | --- | --- | --- | --- | --- | --- | --- | --- |
| C=C(COC(=O)COc1nn(-c2ccccn2)c(-c2ccc(F)nc2)c1Br)C(=O)OC [Example I-370] | 80 | 80 | 100 | 100 | 100 | 100 | 80 | 100 | 0 | 100 | 80 | 100 | 90 | 100 | 100 | 100 | 90 | 100 | 90 | 90 | Post-emergence action against ECHCG in % ([1]; dosage 320 g/ha): 80%; Post-emergence action against PHBPU in % ([3]; dosage 80 g/ha): 80%; Post-emergence action against PHBPU in % ([3]; dosage 320 g/ha): 90%; Post-emergence action against MATIN in % ([6]; dosage 320 g/ha): 80%; Pre-emergence action against POLCO in % ([7]; dosage 80 g/ha): 80%; Post-emergence action against AMARE in % [9, 24]: 80%; Pre-emergence action against SETVI in % (Setaria viridis (SETVI) [12]; dosage 80 g/ha): 100%; Post-emergence action against AVEFA in % (Avena fatua (AVEFA) [13]; 320 g/ha): 90%; Post-emergence action against LOLRI in % (Lolium rigidum (LOLRI) [14]): 90%; Pre-emergence action against LOLRI in % (Lolium rigidum (LOLRI) [15]; dosage 80 g/ha): 90%; Post-emergence action against SETVI in % (Setaria viridis (SETVI) [16]; dosage 80 g/ha): 80%; Post-emergence action against SETVI in % (Setaria viridis (SETVI) [16]; dosage 320 g/ha): 80%; Pre-emergence action against AVEFA in % (Avena fatua (AVEFA) [17]; 80 g/ha): 90%; Post-emergence action against ALOMY in % ([18]; 320 g/ha): 100%; Post-emergence action against VERPE in % ([19]; 320 g/ha, VERPE): 90%; Post-emergence action against VIOTR in % (Viola tricolor (VIOTR) [20]): 80% |
| CS(=O)(=O)CCOC(=O)COc1nn(-c2ccccn2)c(-c2ccc(F)nc2)c1Br [Example I-313] | – | 90 | 100 | 90 | 90 | 100 | 80 | 80 | 10 | 100 | 80 | 90 | 80 | 90 | 100 | 100 | 90 | 90 | 90 | 80 | Post-emergence action against ECHCG in % ([1]; dosage 320 g/ha): 90%; Post-emergence action against PHBPU in % ([3]; dosage 80 g/ha): 90%; Post-emergence action against PHBPU in % ([3]; dosage 320 g/ha): 90%; Post-emergence action against MATIN in % ([6]; dosage 320 g/ha): 90%; Pre-emergence action against POLCO in % ([7]; dosage 80 g/ha): 80%; Post-emergence action against AMARE in % [9, 24]: 90%; Pre-emergence action against SETVI in % (Setaria viridis (SETVI) [12]; dosage 80 g/ha): 100%; Post-emergence action against AVEFA in % (Avena fatua (AVEFA) [13]; 320 g/ha): 80%; Post-emergence action against LOLRI in % (Lolium rigidum (LOLRI) [14]): 90%; Post-emergence action against SETVI in % (Setaria viridis (SETVI) [16]; dosage 80 g/ha): 90%; Post-emergence action against SETVI in % (Setaria viridis (SETVI) [16]; dosage 320 g/ha): 90%; Post-emergence action against ALOMY in % ([18]; 320 g/ha): 90%; Post-emergence action against VERPE in % ([19]; 320 g/ha, VERPE): 90%; Post-emergence action against VIOTR in % (Viola tricolor (VIOTR) [20]): 80% |
| COC(=O)CCOC(=O)COc1nn(-c2ccccn2)c(-c2ccc(F)nc2)c1Br [Example I-116] | 80 | 90 | 100 | 90 | 90 | 100 | 80 | 90 | 10 | 100 | 90 | 90 | 90 | 90 | 100 | 100 | 90 | 90 | 80 | 90 | Post-emergence action against ORYSA in % (Oryza sativa (ORYSA); [25]): 10%; Post-emergence action against ZEAMX in % (crop plant compatibility) (Zea mays (ZEAMX)): 20%; Pre-emergence action against SETVI in % (Setaria viridis (SETVI) [12]; dosage 80 g/ha): 90%; Post-emergence action against SETVI in % (Setaria viridis (SETVI) [16]; dosage 80 g/ha): 80% |
| O=C(O)COc1nn(-c2ccccn2)c(-c2ccc(F)nc2)c1Cl [Example I-98] | 80 | 90 | 100 | 90 | 100 | 100 | 80 | 90 | – | 100 | 80 | 100 | – | 100 | 100 | 100 | 80 | 90 | 80 | 90 | Post-emergence action against ORYSA in % (Oryza sativa (ORYSA); [25]): 10%; Post-emergence action against ZEAMX in % (crop plant compatibility) (Zea mays (ZEAMX)): 10%; Post-emergence action against AVEFA in % (Avena fatua (AVEFA) [13]; 80 g/ha): 80% |
